This note sets out measurements from ChEMBL document CHEMBL1687704, “Benzimidazole-2-pyrazole HIF Prolyl 4-Hydroxylase Inhibitors as Oral Erythropoietin Secretagogues” (ACS Med Chem Lett, 2010).

The nature of data set [1]: Plasma concentration in Balb-C mouse at 100 umol/kg, po after 1 hr. It counts as ADME, organism-based.
Data set [2] in a line: Plasma concentration in Balb-C mouse at 100 umol/kg, po after 6 hrs. Format: ADME, organism-based.

The compound `O=C(O)c1cnn(-c2nc3cc(C(F)(F)F)c(F)cc3[nH]2)c1` displayed a concentration at 1 h in data set [1] of 14 µM. In data set [2], this compound registered a concentration at 6 h of 0.1 µM.
